# Data as given in patent publication US8455497B2, “Inhibitors of aspartyl protease” (Vertex Pharmaceuticals Incorporated, priority 1999, dated 2013).
# System: HIV-1 (strain IIIB)
# Test: Antiviral activity assay in MT4 cells (propidium iodide based)
# Assay type: cell-based
# Details: Human immunodeficiency virus 1, IIIB; wild type HIV-1 virus, MT4 cells; read-out: Wildtype virus - IC50
# Description: Antiviral Activity Assay in MT4 Cells
# Aliquots of the test compounds were serially diluted in medium (RPMI 1640, 10% fetal calf serum (FCS), and gentamycin) in 96-well plates (Costar 3598) using a Cetus Pro/Pette. Exponentially growing MT4 cells were harvested and centrifuged at 1000 rpm for 10 min in a Jouan centrifuge (model CR 4 12). Cell pellets were resuspended in fresh medium (RPMI 1640, 20% FCS, 20% IL-2, and gentamycin) to a density of 5×10^5 cells/ml. Cell aliquots were infected by the addition of HIV-1 (strain IIIB) diluted to give a viral multiplicity of infection of 100×TCID50. A similar cell aliquot was diluted with medium to provide a mock-infected control. Cell infection was allowed to proceed for 1 hr at 37° in a tissue culture incubator with humidified 5% CO2 atmosphere. After the 1 hr incubation the virus/cell suspensions were diluted 6-fold with fresh medium, and 125 μl of the cell suspension was added to each well of the plate containing pre-diluted compound. Plates were then placed in a tissue culture incubator with humidified 5% CO2 for 5 days. At the end of the incubation period, 27 μl of 5% Nonidet-40 was added to each well of the incubation plate. After thorough mixing with a Costar multitip pipetter, 60 μl of the mixture was transferred to filter-bottomed 96-well plates. The plates were analyzed in an automated assay instrument (Screen Machine, Idexx Laboratories). The assay makes use of a propidium iodide dye to estimate the DNA content of each well.
# The anti-viral potency in MT-4 cells of the compounds set forth in Tables 1 and 2 was determined using the above technique.
row,SMILES,IC50 [nM]
1,"Cc1cccc(C)c1OCC(=O)N[C@@H](Cc1ccc(OS(=O)(=O)c2ccc3c(c2)OCO3)cc1)[C@H](O)CN(CC(C)C)S(=O)(=O)c1ccc2c(c1)OCO2 [Compound 350, 4-((2S,3R)-4-[(1,3-benzodioxol-5-ylsulfonyl)(isobutyl)amino]-2-{[(2,6-dimethylphenoxy)acetyl]amino}-3-hydroxybutyl)phenyl 1,3-benzodioxole-5-sulfonate]",10 to 100
2,"CC(C)CN(C[C@@H](O)[C@H](Cc1ccc(OCCCC(=O)O)cc1)NC(=O)O[C@H]1CO[C@H]2OCC[C@H]21)S(=O)(=O)c1ccc2c(c1)OCO2 [Compound 339, 4-(4-{(2S,3R)-2-({[(3R,3aS,6aR)-hexahydrofuro[2,3-b]furan-3-yloxy]carbonyl}amino)-4-[(1,3-benzodioxol-5-ylsulfonyl)(isobutyl)amino]-3-hydroxybutyl}phenoxy) butanoic acid]",10 to 100

# Second part, the compound after the results:
row,IC50 [nM],SMILES
1,10 to 100,CNC(=O)OCCCC(C)(C)CN(C[C@@H](O)[C@H](Cc1ccc(OCc2ccccc2)cc1)NC(=O)OC1CCOC1)S(=O)(=O)c1ccc2c(c1)OCO2 (stereo partly drawn) [Compound 362]
2,10 to 100,"CC(C)CN(C[C@@H](O)[C@H](Cc1ccc(OCCN)cc1)NC(=O)O[C@H]1CO[C@H]2OCC[C@H]21)S(=O)(=O)c1ccc2c(c1)OCO2 [Compound 354, (3R,3aS,6aR)hexahydrofuro[2,3-b]furan-3-yl (1S,2R)-3-[(1,3-benzodioxol-5-ylsulfonyl)(isobutyl)amino]-2-hydroxy-1-[4-(2-aminoethoxy)benzyl]propylcarbamate]"

# Same assay, conditions: Human immunodeficiency virus 1, MT4, 120 h; MT-4 cells, HIV-1 strain IIIB, 5 days; read-out: IC50 (Antiviral Activity of Compounds of the Invention)
row,SMILES,IC50 [nM]
1,"COCCN(CCOC)CCOc1ccc(C[C@H](NC(=O)O[C@H]2CO[C@H]3OCC[C@H]32)[C@H](O)CN(CC(C)C)S(=O)(=O)c2ccc3c(c2)OCO3)cc1 [Compound 51, Bis-THF Methylenedioxybenzenesulfonamide Bis-Methoxyethylamine Tethered Product]",1 to 10
2,"CC(C)CN(C[C@@H](O)[C@H](Cc1ccc(OCCN2CCOCC2)cc1)NC(=O)OC(C)(C)C)S(=O)(=O)c1ccc2c(c1)OCO2 [Compound 17, Boc Methylenedioxybenzenesulfonamide Ethylmorpholine Tethered Product]",> 100
3,"CC(C)CN(C[C@@H](O)[C@H](Cc1ccc(OCCN2CCOCC2)cc1)NC(=O)O[C@H]1CO[C@H]2OCC[C@H]21)S(=O)(=O)c1ccc2c(c1)OCO2 [Compound 48, Bis-THF Methylenedioxybenzenesulfonamide Ethylmorpholine Tethered Product]",1 to 10

# The remaining lines, values ahead:
row,IC50 [nM],SMILES
1,1 to 10,"CC(C)CN(C[C@@H](O)[C@H](Cc1ccc(OCCCN2CCOCC2)cc1)NC(=O)O[C@H]1CO[C@H]2OCC[C@H]21)S(=O)(=O)c1ccc2c(c1)OCO2 [Compound 49, Bis-THF Methylenedioxybenzenesulfonamide Propylmorpholine Tethered Product]"
2,10 to 100,"Cc1cc(C)n(COc2ccc(C[C@H](NC(=O)O[C@H]3CO[C@H]4OCC[C@H]43)[C@H](O)CN(CC(C)C)S(=O)(=O)c3ccc4c(c3)OCO4)cc2)n1 [Compound 56, Bis-THF Methylenedioxybenzenesulfonamide 1-methyl-3,5-dimethylpyrazole Tethered Product]"
3,10 to 100,"CC(C)CN(C[C@@H](O)[C@H](Cc1ccc(OCC(=O)N2CCOCC2)cc1)NC(=O)OC(C)(C)C)S(=O)(=O)c1ccc2c(c1)OCO2 [Compound 21, Boc methylenedioxybenzenesulfonamide Acetylmorpholine Tethered Product]"
4,10 to 100,"CC(C)CN(C[C@@H](O)[C@H](Cc1ccc(OCC(=O)N2CCOCC2)cc1)NC(=O)O[C@H]1CO[C@H]2OCC[C@H]21)S(=O)(=O)c1ccc2c(c1)OCO2 [Compound 50, Bis-THF Methylenedioxybenzenesulfonamide Acetylmorpholine Tethered Product]"

# Same assay, conditions: MT-4 cells, HIV-1 strain IIIB, 5 days; read-out: IC50 (Antiviral Activity of Compounds of the Invention)
row,SMILES,IC50 [nM]
1,CC(C)CN(CC(O)C(Cc1ccc(OCCCN2CCOCC2)cc1)NC(=O)OC1COC2OCCC12)S(=O)(=O)c1ccc(N)cc1 (stereo not drawn) [Compound 30],10 to 100
2,Cc1cc(S(=O)(=O)N(CC(C)C)CC(O)C(Cc2ccc(OCc3ccccc3)cc2)NC(=O)OC2COC3OCCC23)ccc1O (stereo not drawn) [Compound 38],< 1

# Second part, the compound after the results:
row,IC50 [nM],SMILES
1,< 1,CC(C)CN(CC(O)C(Cc1ccc(OCc2ccccc2)cc1)NC(=O)OC1COC2OCCC12)S(=O)(=O)c1ccc(N)cc1 (stereo not drawn) [Compound 26]
2,> 100,COCCN(CCOC)CCOc1ccc(CC(NC(=O)OC2COC3OCCC23)C(O)CN(CC(C)(C)CCC#N)S(=O)(=O)c2ccc(N)cc2)cc1 (stereo not drawn) [Compound 74]
3,> 100,CC(C)CN(CC(O)C(Cc1ccc(OCCCN2CCOCC2)cc1)NC(=O)OC(C)(C)C)S(=O)(=O)c1cccc(N)c1 (stereo not drawn) [Compound 16]
4,> 100,COCCN(CCOC)CCOc1ccc(CC(NC(=O)OC2CCOC2)C(O)CN(CC(C)(C)CCC#N)S(=O)(=O)c2ccc(N)cc2)cc1 (stereo not drawn) [Compound 70]
5,10 to 100,Cc1cc(COc2ccc(CC(NC(=O)OC3COC4OCCC34)C(O)CN(CC(C)C)S(=O)(=O)c3ccc(N)cc3)cc2)no1 (stereo not drawn) [Compound 33]
6,10 to 100,COCCN(CCOC)CCOc1ccc(CC(NC(=O)OC2COC3OCCC23)C(O)CN(CC(C)(C)CCC#N)S(=O)(=O)c2ccc3c(c2)OCO3)cc1 (stereo not drawn) [Compound 73]
7,> 100,CC(C)CN(CC(O)C(Cc1ccc(OCCN2CCOCC2)cc1)NC(=O)OC(C)(C)C)S(=O)(=O)c1ccc(N)cc1 (stereo not drawn) [Compound 10]
8,> 100,COCCN(CCOC)CCOc1ccc(CC(NC(=O)OC(C)(C)C)C(O)CN(CC(C)(C)CCC#N)S(=O)(=O)c2ccc(N)cc2)cc1 (stereo not drawn) [Compound 67]
9,10 to 100,CC(C)CN(CC(O)C(Cc1ccc(O)cc1)NC(=O)OC1COC2OCCC12)S(=O)(=O)c1ccc(N)cc1 (stereo not drawn) [Compound 32]
10,> 100,CC(C)CN(CC(O)C(Cc1ccc(OCCN2CCOCC2)cc1)NC(=O)OC(C)(C)C)S(=O)(=O)c1cccc(N)c1 (stereo not drawn) [Compound 15]

# Same assay, conditions: wild type HIV-1 virus, MT4 cells; read-out: Wildtype virus - IC50
row,SMILES,IC50 [nM]
1,CC(C)CN(C[C@@H](O)[C@H](Cc1ccc(OCCCNC(=O)N(C)C)cc1)NC(=O)O[C@H]1CO[C@H]2OCC[C@H]21)S(=O)(=O)c1ccc2c(c1)OCO2 [Compound 254],1 to 10
2,CC(C)CN(C[C@@H](O)[C@H](Cc1ccc(OCCc2ccsc2)cc1)NC(=O)O[C@H]1CO[C@H]2OCC[C@H]21)S(=O)(=O)c1ccc2c(c1)OCO2 [Compound 208],10 to 100
3,CC(C)CN(C[C@@H](O)[C@H](Cc1ccc(OCCCC(F)(F)F)cc1)NC(=O)O[C@H]1CO[C@H]2OCC[C@H]21)S(=O)(=O)c1ccc2c(c1)OCO2 [Compound 216],1 to 10
4,CC(C)CN(C[C@@H](O)[C@H](Cc1ccc(OCCCc2cccnc2)cc1)NC(=O)O[C@H]1CO[C@H]2OCC[C@H]21)S(=O)(=O)c1ccc2c(c1)OCO2 [Compound 214],1 to 10
5,Cc1ncsc1CCOc1ccc(C[C@H](NC(=O)O[C@H]2CO[C@H]3OCC[C@H]32)[C@H](O)CN(CC(C)C)S(=O)(=O)c2ccc3c(c2)OCO3)cc1 [Compound 213],1 to 10
6,CC(C)CN(C[C@@H](O)[C@H](Cc1ccc(OCc2ccsc2)cc1)NC(=O)O[C@H]1CO[C@H]2OCC[C@H]21)S(=O)(=O)c1ccc2c(c1)OCO2 [Compound 207],1 to 10
7,"N#Cc1cccc(COc2ccc(C[C@H](NC(=O)O[C@H]3CO[C@H]4OCC[C@H]43)[C@H](O)CN(CC3CCCC3)S(=O)(=O)c3ccc4c(c3)OCO4)cc2)c1 [Compound 396, (3R,3aS,6aR)-hexahydrofuro[2,3-b]furan-3-yl (1S,2R)-3-[(1,3-benzodioxol-5-ylsulfonyl)(cyclopentylmethyl)amino-]-1-{4-[(3-cyanobenzyl)oxy]benzyl}-2-hydroxypropylcarbamate]",1 to 10
8,CC(C)CN(C[C@@H](O)[C@H](Cc1ccc(OCc2ccc(-c3csnn3)cc2)cc1)NC(=O)O[C@H]1CO[C@H]2OCC[C@H]21)S(=O)(=O)c1ccc2c(c1)OCO2 [Compound 374],1 to 10
9,CC(C)CN(C[C@@H](O)[C@H](Cc1ccc(OCCc2ccc(C#N)cc2)cc1)NC(=O)O[C@H]1CO[C@H]2OCC[C@H]21)S(=O)(=O)c1ccc2c(c1)OCO2 [Compound 215],1 to 10
10,CC(C)CC(=O)NCCCOc1ccc(C[C@H](NC(=O)O[C@H]2CO[C@H]3OCC[C@H]32)[C@H](O)CN(CC(C)C)S(=O)(=O)c2ccc3c(c2)OCO3)cc1 [Compound 231],1 to 10
11,CC(C)CN(C[C@@H](O)[C@H](Cc1ccc(OCCC(F)(F)F)cc1)NC(=O)O[C@H]1CO[C@H]2OCC[C@H]21)S(=O)(=O)c1ccc2c(c1)OCO2 [Compound 217],1 to 10
12,"CC(C)CN(C[C@@H](O)[C@H](Cc1ccc(OCc2ccc([N+](=O)[O-])cc2)cc1)NC(=O)O[C@H]1CO[C@H]2OCC[C@H]21)S(=O)(=O)c1ccc2c(c1)OCO2 [Compound 383, (3R,3aS,6aR)-hexahydrofuro[2,3-b]furan-3-yl (1S,2R)-3-[(1,3-benzodioxol-5-ylsulfonyl)(isobutyl)amino]-2-hydroxy 1-{4-[(4-nitrobenzyl)oxy]benzyl}propylcarbamate]",1 to 10
13,CC(C)CN(C[C@@H](O)[C@H](Cc1ccc(OCCCCNS(C)(=O)=O)cc1)NC(=O)O[C@H]1CO[C@H]2OCC[C@H]21)S(=O)(=O)c1ccc2c(c1)OCO2 [Compound 252],1 to 10
